Where two headings read alike, the source gives them in different places.
Experiments:
[1] = target: EGFR double mutation L858R/T790M (H1975 cells) (Homo sapiens (Human), UniProt P00533, L858R/T790M); assay: Phospho-EGFR signaling (immunoblotting, 1 hr) in H1975 cells; type: cell-based; details: signaling EC50 WT (A431) / H1975
Procedure: (§1) A431 human epidermoid carcinoma, H1975 human NSCLC and HCC827 human NSCLC adenocarcinoma cells were obtained from the American Type Culture Center (Manassas, Va.). A431 cells were grown in DMEM (Invitrogen, Carlsbad, Calif.) supplemented with 10% FBS (HyClone, South Logan, Utah) and 1% Penicillin-Streptomycin (P/S, Lonza, Walkersville, Md.).
(§2) All primary antibodies were obtained from Cell Signaling (Danvers, Mass.) and used at 1:1000. Secondary antibodies were used at 1:10,000. Goat anti-mouse IgG IRDye 800CW antibody was obtained from LiCor Biosciences (Lincoln, Nebr.) and goat anti-rabbit IgG Alexa Fluor 680 was obtained from Invitrogen.
(§3) Cells were grown in 12-well plates (Corning, Coring, N.Y.) to 90% confluence and then incubated in low-serum (0.1% FBS) media for 16-18 hr. […] A431 cells were then stimulated with 50 ng/ml EGF (Peprotech, Rocky Hill, N.J.) for 15 min. After treatment, cell monolayers were washed with cold PBS (Invitrogen) and immediately lysed by scrapping into 60 uL cold Cell Extraction Buffer (Invitrogen) supplemented with Complete Protease inhibitors (Roche, Indianapolis, Ind.) and PhosphoSTOP (Roche) phosphatase inhibitors.
(§4) Phospho-protein signals were quantitated using Odyssey Infrared Imaging (Li-Cor Biosciences).
(§5) To assess phosphor-EGFR signaling, blots were probed with rabbit anti-Phospho-EGFR (Y1068) and mouse total anti-EGFR antibodies. Phospho-EGFR signal was normalized to total EGFR expression for each sample. […] Normalized data was fitted using a sigmoidal curve analysis program (Graph Pad Prism version 5) with variable Hill slope to determine the EC50 values.

[2] = target: EGFR delE746-A750 deletion mutation (HCC827 cells) (Homo sapiens (Human), UniProt P00533, DEL746-750); assay: Phospho-EGFR signaling (immunoblotting, 1 hr) in HCC827 cells; type: cell-based; details: signaling EC50 WT (A431) / HCC827
Procedure: as §1, §2, §3, §4, §5

[3] = test system: A431 cells (WT EGFR); assay: Cell proliferation (CellTiter Glo, 72 hr) in A431 cells; type: cell-based; details: Homo sapiens
Procedure: as §1
(§6) Cells were plated in Growth Media supplemented with 5% FBS and 1% P/S at a density of 3,000 cells per well in 96 well tissue culture plates (Corning). […] Growth inhibition (GI50) values were determined by Graph Pad Prism.

[4] = test system: H1975 cells (EGFR L858R/T790M); assay: Cell proliferation (CellTiter Glo, 72 hr) in H1975 cells; type: cell-based, human; details: Homo sapiens
Procedure: as §1, §6

[5] = test system: HCC827 cells (EGFR delE746-A750); assay: Cell proliferation (CellTiter Glo, 72 hr) in HCC827 cells; type: cell-based, human; details: Homo sapiens
Procedure: as §1, §6

[6] = target: pEGFR in H1975 cells (Homo sapiens (Human), UniProt P00533, L858R/T790M); assay: Washout experiment in H1975 cells (pEGFR); type: cell-based; details: 500 nM for 1 hr; for pEGFR activity restored: 24 h after compound removal, by new protein synthesis; for inhibition at 0.5 µM: NCI-H1975
Procedure: Washout Experiment in H1975 Cells Containing EGFR Deletion/T790M Mutation
Cells were plated in Growth Media supplemented with 10% FBS and 1% P/S at a density of 2.0×10^5 cells per well in 12 well tissue culture plates. Cells were allowed to settle down for 4 hrs and then maintained in low-serum (0.1% FBS) media overnight.
The following morning the media was removed and the cells were treated with 500 nM test compound in low-serum media for 1 hr. The cells were washed free of compound 2× with PBS (Invitrogen). One set of cells were immediately lysed as indicated above as the 0 hr time point. The remaining cells were incubated with complete RPMI-1640 growth media (10% FBS) for 1, 3, 6 and 24 hr. For the first 1 hr, cells were washed 2× with PBS every 30 min. DMSO (0.5%) controls were collected at the 0, 3, 6 and 24 hr time points.

[7] = A-431, A431 cells, 72 hr, read-out: WT EGFR GI50
[8] = NCI-H1975, H1975 cells, 72 hr, read-out: H1975 GI50
[9] = HCC827 cells, 72 hr, read-out: HCC827 GI50
[10] = A-431, Table 2, A431 cells express WT EGFR, read-out: Comparative GI50 Values, A431
[11] = NCI-H1975, Table 2, H1975 express EGFR L858R/T790M, read-out: Comparative GI50 Values, H1975
[12] = Table 2, HCC827 express EGFR delE746-A750, read-out: Comparative GI50 Values, HCC827
[13] = 1 hr after compound removal, read-out: pEGFR phosphorylation inhibited
[14] = for at least 8 hours after compound was removed, read-out: pEGFR remained inhibited

Ratio WT/mutant (H1975) [1] | GI50 [3, 7] | GI50 [4, 8] | GI50 [5, 9] | SMILES | further results
>15 | > 1000 nM | 100 to 500 nM | 10 to 100 nM | C=CC(=O)Nc1cccc(Nc2nc(Nc3ccc(N4CCOCC4)cc3OC(F)F)ncc2C(F)(F)F)c1 [Compound I-14, N-(3-(2-(2-(difluoromethoxy)-4-morpholinophenylamino)-5-(trifluoromethyl)pyrimidin-4-ylamino)phenyl)acrylamide] | Ratio WT/mutant (HCC827) [2]: >15
>50 | > 1000 nM | 10 to 100 nM | 10 to 100 nM | C=CC(=O)Nc1cccc(Nc2nc(Nc3ccc(N4CCOCC4)cc3OC)ncc2C(F)(F)F)c1 [Compound I-2, N-(3-(2-(2-methoxy-4-morpholinophenylamino)-5-(trifluoromethyl)pyrimidin-4-ylamino)phenyl)acrylamide] | GI50 [3, 10]: > 1000 nM; GI50 [4, 11]: 10 to 100 nM; GI50 [5, 12]: 10 to 100 nM; pEGFR activity restored [6]: 40-60%; inhibition at 0.5 µM [6, 13]: 80 to 100%; inhibition at 0.5 µM [6, 14]: 60 to 90%
>50 | > 1000 nM | 10 to 100 nM | 10 to 100 nM | C=CC(=O)Nc1cccc(Nc2nc(Nc3ccc(N4CCN(C(C)=O)[C@H](C(=O)OC)C4)cc3OC)ncc2C(F)(F)F)c1 [Compound I-48] | 
>5 | > 1000 nM | 100 to 500 nM | 100 to 500 nM | C=CC(=O)Nc1cccc(Nc2nc(Nc3ccc(N4CCCN(C(C)=O)CC4)cc3OC)ncc2C(F)(F)F)c1 [Compound I-7, N-(3-(2-(4-(4-acetyl-1,4-diazepan-1-yl)-2-methoxyphenylamino)-5-(trifluoromethyl)pyrimidin-4-ylamino)phenyl)acrylamide] | 
>35 | > 1000 nM | 100 to 500 nM | 10 to 100 nM | C=CC(=O)Nc1cccc(Oc2nc(Nc3ccc(N4CCN(S(C)(=O)=O)CC4)cc3OC)ncc2C(F)(F)F)c1 [Compound I-22, N-(3-(2-(2-methoxy-4-(4-(methylsulfonyl)piperazin-1-yl)phenylamino)-5-(trifluoromethyl)pyrimidin-4-yloxy)phenyl)acrylamide] | 
>15 | > 1000 nM | 100 to 500 nM | 10 to 100 nM | C=CC(=O)Nc1cccc(Oc2nc(Nc3ccc(N4CCN(C(=O)CO)CC4)cc3OC)ncc2C(F)(F)F)c1 [Compound I-11, N-(3-(2-(4-(4-(2-hydroxyacetyl)piperazin-1-yl)-2-methoxyphenylamino)-5-(trifluoromethyl)pyrimidin-4-yloxy)phenyl)acrylamide] | 
>5 | 500 to 1000 nM | 100 to 500 nM | 10 to 100 nM | C=CC(=O)Nc1cccc(Oc2nc(Nc3ccc(N4CCN(C(=O)NC)CC4)cc3OC)ncc2C(F)(F)F)c1 [Compound I-21, 4-(4-(4-(3-acrylamidophenoxy)-5-(trifluoromethyl)pyrimidin-2-ylamino)-3-methoxyphenyl)-N-methylpiperazine-1-carboxamide] | 
>30 | > 1000 nM | 100 to 500 nM | 10 to 100 nM | C=CC(=O)Nc1cccc(Oc2nc(Nc3ccc(N4CCOCC4)cc3OC)ncc2Cl)c1 [Compound I-5, N-(3-(5-chloro-2-(2-methoxy-4-morpholinophenylamino)pyrimidin-4-yloxy)phenyl)acrylamide] | 
>1 | 500 to 1000 nM | 100 to 500 nM | 10 to 100 nM | C=CC(=O)Nc1cccc(Nc2nc(Nc3ccc(N4CCN(C(=O)CO)CC4)cc3OC)ncc2Cl)c1 [Compound I-12, N-(3-(5-chloro-2-(4-(4-(2-hydroxyacetyl)piperazin-1-yl)-2-methoxyphenylamino)pyrimidin-4-ylamino)phenyl)acrylamide] | 
>50 | > 1000 nM | 10 to 100 nM | 100 to 500 nM | C=CC(=O)Nc1cccc(Nc2nc(Nc3ccc(N4CCN(C(C)=O)CC4)cc3OC(F)(F)F)ncc2C(F)(F)F)c1 [Compound I-33, N-(3-(2-(4-(4-acetylpiperazin-1-yl)-2-(trifluoromethoxy)phenylamino)-5-(trifluoromethyl)pyrimidin-4-ylamino)phenyl)acrylamide] | 
>20 | 500 to 1000 nM | 10 to 100 nM | 10 to 100 nM | C=CC(=O)Nc1cccc(Nc2nc(Nc3ccc(N4CCN(C(=O)CO)CC4)cc3OC)ncc2C(F)(F)F)c1 [Compound I-6, N-(3-(2-(4-(4-(2-hydroxyacetyl)piperazin-1-yl)-2-methoxyphenylamino)-5-(trifluoromethyl)pyrimidin-4-ylamino)phenyl)acrylamide] | 
 | 500 to 1000 nM | 10 to 100 nM | 10 to 100 nM | C=CC(=O)Nc1cccc(Nc2nc(Nc3ccc(N4CCN(C(C)=O)CC4)cc3OC)ncc2C(F)(F)F)c1 [Compound I-4, N-(3-(2-(4-(4-acetylpiperazin-1-yl)-2-methoxyphenylamino)-5-(trifluoromethyl)pyrimidin-4-ylamino)phenyl)acrylamide] | GI50 [3, 10]: 500 to 1000 nM; GI50 [4, 11]: 10 to 100 nM; GI50 [5, 12]: 10 to 100 nM; pEGFR activity restored [6]: 40-60%; inhibition at 0.5 µM [6, 13]: 80 to 100%; inhibition at 0.5 µM [6, 14]: 60 to 90%
>1 | 500 to 1000 nM | 100 to 500 nM | 10 to 100 nM | C=CC(=O)Nc1cccc(Nc2nc(Nc3ccc(N4CCN(C(C)=O)CC4)cc3OC)ncc2Cl)c1 [Compound I-8, N-(3-(2-(4-(4-acetylpiperazin-1-yl)-2-methoxyphenylamino)-5-chloropyrimidin-4-ylamino)phenyl)acrylamide] | 
>50 | > 1000 nM | 10 to 100 nM | 10 to 100 nM | C=CC(=O)Nc1cccc(Oc2nc(Nc3ccc(N4CCOCC4)cc3OC)ncc2C(F)(F)F)c1 [Compound I-1, N-(3-(2-(2-methoxy-4-morpholinophenylamino)-5-(trifluoromethyl)pyrimidin-4-yloxy)phenyl)acrylamide] | 
>20 | > 1000 nM | 100 to 500 nM | 10 to 100 nM | C=CC(=O)Nc1cccc(Nc2nc(Nc3ccc(N4CCS(=O)(=O)CC4)cc3OC)ncc2C(F)(F)F)c1 [Compound I-49, N-(3-(2-(2-methoxy-4,4-dioxo-4-thiomorpholinophenylamino)-5-(trifluoromethyl)pyrimidin-4-ylamino)phenyl)acrylamide] | 

SMILES | Ratio WT/mutant (H1975) [1] | GI50 [3, 7] | GI50 [4, 8] | GI50 [5, 9] | further results
C=CC(=O)Nc1cccc(Oc2nc(Nc3ccc(N4CCN(C(=O)OC(C)(C)C)CC4)cc3OC)ncc2Cl)c1 [Compound I-46, tert-butyl 4-(4-(4-(3-acrylamidophenoxy)-5-chloropyrimidin-2-ylamino)-3-methoxyphenyl)piperazine-1-carboxylate] | >10 |  |  |  | Ratio WT/mutant (HCC827) [2]: >50; GI50 ([3]; A-431, 72 h, read-out: WT EGFR GI50): > 1000 nM; GI50 ([4]; NCI-H1975, 72 h, read-out: H1975 GI50): 500 to 1000 nM; GI50 ([5]; HCC827, 72 h, read-out: HCC827 GI50): 100 to 500 nM
